# Data taken from BindingDB's records for patent US20250270212 (Padarn Therapeutics, 2025).
# Biological target: Wee1-like protein kinase (Homo sapiens, UniProt P30291)
# Assay: Wee1 Enzymatic Activity Inhibition Assay
# Method: The enzymatic assay used to determine activity was a Luminescence assay using a Microplate Reader (BMG, ClarioStar Plus). The enzymatic reaction was carried out in assay buffer (40 mM TRIS-HCl pH 7.4-7.6, 20 mM MgCl2, 0.05 mM DTT, 0.1 mg/ml BSA, 5 mM MnCl2). The compounds were dispensed on a 384 well Diamond Well Plate (Axigen, Cat #P-384-120SQ-C-S) using the Biomek FX liquid handling system at 100× solutions of compounds in DMSO. 2×Wee1-PolyE4Y1 mix (final concentration 0.85 ng/μl of Wee1 and 0.2 μg/μl of PolyE4Y1) was prepared in 1× Assay buffer and 5.5 μl of mixture per well was added into 384w white Reaction plate with NBS (Corning, Cat #4513). 5.5 μl of PolyE4Y1 substrate w/o Wee1 in 1× buffer was used for negative control. Plates were centrifuged for 1 min at 100 g. Next step the Compounds were added to Reaction plate using Biomek station via following steps: 1 μl of 100× compounds (in DMSO) were mixed thoroughly with 49 μl of 2×10 μM ATP in Assay Buffer, then 5.5 μl of this mixture was added to Reaction plate with 5.5 μl of Wee1-PolyE4Y1 mix. Plates were centrifuged for 1 min at 100 g and incubated for 1 h at room temperature. Next 3 μL of ADP-Glo reagent (Promega, ADP-Glo™ Kinase Assay, Cat #V9102) per well was added. Plates were incubated for 30 minutes at room temperature. Then 6 μL of Kinase detection reagent (Promega, ADP-Glo™ Kinase Assay, Cat #V9102) per well was added and the Luminescence was measured using Microplate Reader.
# Sequence of Wee1-like protein kinase (P30291 whole entry): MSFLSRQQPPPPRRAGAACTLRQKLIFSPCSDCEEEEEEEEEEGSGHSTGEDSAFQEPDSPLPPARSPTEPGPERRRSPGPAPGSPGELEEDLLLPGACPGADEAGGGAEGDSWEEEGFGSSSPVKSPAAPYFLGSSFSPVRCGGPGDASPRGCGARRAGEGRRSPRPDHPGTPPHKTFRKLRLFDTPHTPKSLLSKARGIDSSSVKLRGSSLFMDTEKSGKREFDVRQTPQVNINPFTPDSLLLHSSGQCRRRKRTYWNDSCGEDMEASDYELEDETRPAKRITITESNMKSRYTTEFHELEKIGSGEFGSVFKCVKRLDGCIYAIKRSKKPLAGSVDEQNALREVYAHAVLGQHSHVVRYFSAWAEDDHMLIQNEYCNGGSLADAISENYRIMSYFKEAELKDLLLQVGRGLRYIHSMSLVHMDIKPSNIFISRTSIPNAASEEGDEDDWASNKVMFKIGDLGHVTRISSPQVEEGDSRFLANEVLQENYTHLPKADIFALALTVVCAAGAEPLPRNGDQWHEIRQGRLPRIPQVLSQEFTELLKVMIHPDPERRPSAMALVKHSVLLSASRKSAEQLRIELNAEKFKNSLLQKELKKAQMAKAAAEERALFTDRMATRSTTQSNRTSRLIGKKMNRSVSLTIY
row,EC50,SMILES
1,< 10 nM,"Cn1c(=O)c2cnc(Nc3ccc(N4CCN(Cc5cc(Cc6n[nH]c(=O)c7ccccc67)ccc5F)CC4)cc3)nc2n1-c1cccc(C(C)(C)O)n1 [US20250270212, Compound 8]"
2,> 1000 nM,"Cn1c2nc(Nc3ccc(N4CCN(C(=O)c5cc(Cc6n[nH]c(=O)c7ccccc67)ccc5F)CC4)cc3)ncc2c(=O)n1-c1ccccn1 [US20250270212, Compound 12]"
3,< 10 nM,"C=CCn1c(=O)c2cnc(Nc3ccc(N4CCN(Cc5ccc(-c6[nH]c7cc(F)cc8c7c6CCNC8=O)cc5)CC4)cc3)nc2n1-c1ccccn1 [US20250270212, Compound 39]"
4,< 10 nM,"C=CCn1c(=O)c2cnc(Nc3ccc(N4CCN(C(=O)c5cc(Cn6c(=O)[nH]c(=O)c7c(F)cccc76)ccc5F)CC4)cc3)nc2n1-c1cccc(C(C)(C)O)n1 [US20250270212, Compound 16]"
5,< 10 nM,"C=CCn1c(=O)c2cnc(Nc3ccc(N4CCN(C(=O)c5cc(Cc6n[nH]c(=O)c7ccccc67)ccc5F)CC4)cc3)nc2n1-c1cccc(C(C)(C)O)c1 [US20250270212, Compound 1]"
6,> 1000 nM,"C=CCn1c(=O)c2cnc(NCCNC(=O)c3cc(Cc4n[nH]c(=O)c5ccccc45)ccc3F)nc2n1-c1cccc(C(C)(C)O)n1 [US20250270212, Compound 6]"
7,< 10 nM,"C=CCn1c(=O)c2cnc(Nc3ccc(N4CCN(Cc5cc(Cn6c(=O)[nH]c(=O)c7c(F)cccc76)ccc5F)CC4)cc3)nc2n1-c1cccc(C(C)(C)O)n1 [US20250270212, Compound 34]"
8,< 10 nM,"C=CCn1c(=O)c2cnc(Nc3ccc(N4CCN(C(=O)c5cc(Cn6c(=O)[nH]c(=O)c7c(F)cccc76)ccc5F)CC4)cc3)nc2n1-c1ccccn1 [US20250270212, Compound 28]"
9,> 1000 nM,"C=CCn1c(=O)c2cnc(N3CCN(C(=O)c4cc(Cc5n[nH]c(=O)c6ccccc56)ccc4F)CC3)nc2n1-c1cccc(C(C)(C)O)n1 [US20250270212, Compound 2]"
10,> 1000 nM,"Cn1c2nc(Nc3ccc(N4CCC(c5nc6cccc(C(N)=O)c6[nH]5)CC4)cc3)ncc2c(=O)n1-c1ccccn1 [US20250270212, Compound 91]"
11,> 1000 nM,"C=CCn1c(=O)c2cnc(NC3CCN(C(=O)c4cc(Cc5n[nH]c(=O)c6ccccc56)ccc4F)CC3)nc2n1-c1cccc(C(C)(C)O)n1 [US20250270212, Compound 4]"
12,> 1000 nM,"Cn1c(=O)c2cnc(N3CCN(C(=O)c4cc(Cc5n[nH]c(=O)c6ccccc56)ccc4F)CC3)nc2n1-c1ccccn1 [US20250270212, Compound 5]"
13,< 10 nM,"Cn1c(=O)c2cnc(Nc3ccc(N4CCN(C(=O)c5cc(Cc6n[nH]c(=O)c7ccccc67)ccc5F)CC4)cc3)nc2n1-c1cccc(C(C)(C)O)n1 [US20250270212, Compound 7]"
14,> 1000 nM,"C=CCn1c(=O)c2cnc(NC3CCN(Cc4ccc(-c5[nH]c6cc(F)cc7c6c5CCNC7=O)cc4)CC3)nc2n1-c1cccc(C(C)(C)O)n1 [US20250270212, Compound 47]"
15,< 10 nM,"Cn1c(=O)c2cnc(Nc3ccc(N4CCCC(c5nc6cccc(C(N)=O)c6[nH]5)C4)cc3)nc2n1-c1ccccn1 (stereo unspecified) [US20250270212, Compound 96]"

row,SMILES,EC50
1,"Cn1c2nc(Nc3ccc(N4CCN(C(=O)c5cc(Cn6c(=O)[nH]c(=O)c7c(F)cccc76)ccc5F)CC4)cc3)ncc2c(=O)n1-c1ccccn1 [US20250270212, Compound 17]",> 1000 nM
